Test results as given in patent EP4810052A2, “HCRHR2 SELECTIVE POLYPEPTIDES” (Gubra A/S, priority 2023, dated 2026).
Where two headings read alike, the source gives them in different places. Starred links: 1 amine or outer side, 2 acyl side, 3 side chain; linkers in the order of their positions; H or OH if unused. Non-standard residues stand in square brackets, D forms with d. Residues, ends and D or L forms follow the SMILES beside them. Groups on a side chain read outwards from the residue. *: point of attachment. C20 diacid = O=C(O)CCCCCCCCCCCCCCCCCCC(=O)*; Pro(4S-NH2) = N[C@@H]1CN[C@H](C(=O)O)C1; γGlu = O=C(O)[C@H](CCC(=O)[*:2])N[*:1]; NMeI = CC[C@H](C)[C@H](NC)C(=O)O; Nle = CCCC[C@H](N)C(=O)O; AEEA = NCCOCCOCC(=O)O; Aib = CC(C)(N)C(=O)O

How the values were obtained:
hCRHR2 = biological target: T1, hCRHR2 (Homo sapiens, UniProt Q13324); assay: HTRF cAMP assay, determination of hCRHR2 potency (peptide libraries 5 conc., purified peptides 11 conc.); assay type: cell-based
T1 sequence (Q13324 1-411): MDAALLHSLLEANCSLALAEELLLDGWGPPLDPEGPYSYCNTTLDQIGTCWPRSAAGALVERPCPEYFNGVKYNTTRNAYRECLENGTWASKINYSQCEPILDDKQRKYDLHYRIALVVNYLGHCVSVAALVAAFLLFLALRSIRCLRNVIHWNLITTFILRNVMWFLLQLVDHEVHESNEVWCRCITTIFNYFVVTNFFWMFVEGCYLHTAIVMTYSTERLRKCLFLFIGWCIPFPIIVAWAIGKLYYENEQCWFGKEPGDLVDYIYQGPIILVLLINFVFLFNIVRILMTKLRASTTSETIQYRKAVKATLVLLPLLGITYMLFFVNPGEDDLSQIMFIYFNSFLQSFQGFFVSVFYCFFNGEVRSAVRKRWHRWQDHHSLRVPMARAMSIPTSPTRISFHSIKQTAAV
Method in brief: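 CHO-K1 cells stably expressing human CRHR2 were thawed from frozen stocks immediately before use and assayed in suspension with agonist peptides. cAMP was measured by time-resolved FRET in a competitive immunoassay between cryptate-labelled anti-cAMP antibody and d2-labelled cAMP. EC50 values came from nonlinear regression, sigmoid variable-slope fit.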

hCRHR1 = biological target: T2, hCRHR1 (Homo sapiens, UniProt P34998); assay: HTRF cAMP assay, determination of hCRHR1 potency (peptide libraries 5 conc., purified peptides 11 conc.); assay type: cell-based
T2 sequence (P34998 24-415): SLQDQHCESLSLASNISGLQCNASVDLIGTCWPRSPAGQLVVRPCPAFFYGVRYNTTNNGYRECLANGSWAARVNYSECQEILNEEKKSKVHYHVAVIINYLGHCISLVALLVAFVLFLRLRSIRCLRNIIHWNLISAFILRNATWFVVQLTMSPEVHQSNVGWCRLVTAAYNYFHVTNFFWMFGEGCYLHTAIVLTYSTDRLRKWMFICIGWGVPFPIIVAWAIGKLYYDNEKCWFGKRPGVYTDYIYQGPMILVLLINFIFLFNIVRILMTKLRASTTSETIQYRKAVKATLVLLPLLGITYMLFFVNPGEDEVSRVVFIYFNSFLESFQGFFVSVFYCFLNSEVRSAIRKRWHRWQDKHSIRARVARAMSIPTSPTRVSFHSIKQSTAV
Method in brief: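 CHO-K1 cells stably expressing human CRHR1, thawed from frozen stocks just before use, were stimulated in suspension with agonist peptides. cAMP was measured by HTRF competitive immunoassay (cryptate anti-cAMP antibody vs d2-cAMP).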

[1] = Table 3, matched molecular pairs X^38 L vs Nle, peptide library of Example 4, read-out: hCRHR2 pEC50 (converted)
[2] = Table 3, matched molecular pairs X^38 L vs Nle, peptide library of Example 4, read-out: hCRHR1 pEC50 (converted)
[3] = library peptides, matched molecular pairs L vs Nle in position X^38, read-out: Potency hCRHR2 pEC50 (converted)
[4] = library peptides, matched molecular pairs L vs Nle in position X^38, read-out: Potency hCRHR1 pEC50 (converted)

Row | Structure (SMILES) | EC50 (hCRHR2; [1]) | EC50 (hCRHR1; [2]) | EC50 (hCRHR2; [3]) | EC50 (hCRHR1; [4]) | also measured
1 | CCCC[C@H](NC(=O)[C@@H](NC(=O)[C@H](CCC(=O)O)NC(=O)C(C)(C)NC(=O)[C@H](CC(N)=O)NC(=O)[C@@H](NC(=O)[C@H](CCCCNC(=O)COCCOCCNC(=O)COCCOCCNC(=O)CC[C@H](NC(=O)CC[C@H](NC(=O)CCCCCCCCCCCCCCCCCCC(=O)O)C(=O)O)C(=O)O)NC(=O)[C@H](C)NC(=O)[C@H](CCC(N)=O)NC(=O)[C@H](CCC(=O)O)NC(=O)[C@H](CCCNC(=N)N)NC(=O)[C@H](C)NC(=O)[C@H](C)NC(=O)[C@H](CCCNC(=N)N)NC(=O)[C@H](C)NC(=O)[C@H](CCCNC(=N)N)NC(=O)[C@H](C)NC(=O)[C@H](CCC(N)=O)NC(=O)[C@H](CC(C)C)NC(=O)[C@H](CC(C)C)NC(=O)[C@H](CC(C)C)NC(=O)[C@@H](NC(=O)[C@H](CCC(N)=O)NC(=O)[C@H](CC(C)C)NC(=O)[C@H](CC(C)C)NC(=O)CNC(=O)[C@@H](NC(=O)[C@@H]1CCCN1C(=O)[C@@H](NC(=O)[C@H](CC(=O)O)NC(=O)[C@H](CC(C)C)NC(=O)[C@H](CO)NC(=O)[C@H](CC(C)C)NC(=O)[C@@H](NC(=O)[C@@H](NC)[C@@H](C)CC)C(C)C)C(C)C)[C@@H](C)CC)[C@@H](C)CC)[C@@H](C)O)[C@@H](C)CC)C(=O)N[C@@H](C)C(=O)N[C@@H](CCC(=O)O)C(=O)N[C@H](C(N)=O)C(C)C [compound 229] (H-[NMeI]VLSLDVPIGLLQILLLQARARAAREQAK([AEEA-AEEA-γGlu-γGlu-C20 diacid])TN[Aib]EI[Nle]AEV-NH2) | – | – | – | – | EC50 (hCRHR2; Table 4, library peptides having X^38 = Nle, read-out: hCRHR2 pEC50 (converted)): 0.0794 nM; EC50 (hCRHR1; Table 4, library peptides having X^38 = Nle, read-out: hCRHR1 pEC50 (converted)): 6310 nM
2 | CC[C@H](C)[C@H](N)C(=O)N[C@H](C(=O)N[C@@H](CC(C)C)C(=O)N[C@@H](CO)C(=O)N[C@@H](CC(C)C)C(=O)N[C@@H](CC(=O)O)C(=O)N[C@H](C(=O)N1CCC[C@H]1C(=O)N[C@H](C(=O)NCC(=O)N[C@@H](CC(C)C)C(=O)N[C@@H](CC(C)C)C(=O)N[C@@H](CCC(N)=O)C(=O)N[C@H](C(=O)N[C@@H](CC(C)C)C(=O)N[C@@H](CC(C)C)C(=O)N[C@@H](CCC(=O)O)C(=O)N[C@@H](CCC(N)=O)C(=O)N[C@@H](C)C(=O)N[C@@H](CCCNC(=N)N)C(=O)N[C@@H](C)C(=O)N[C@@H](CCC(N)=O)C(=O)N[C@@H](C)C(=O)N[C@@H](C)C(=O)N[C@@H](CCCNC(=N)N)C(=O)N[C@@H](CCC(=O)O)C(=O)N[C@@H](CCC(N)=O)C(=O)N[C@@H](C)C(=O)N[C@@H](CCCCNC(=O)COCCOCCNC(=O)COCCOCCNC(=O)CC[C@H](NC(=O)CC[C@H](NC(=O)CCCCCCCCCCCCCCCCCCC(=O)O)C(=O)O)C(=O)O)C(=O)N[C@H](C(=O)N[C@@H](CC(N)=O)C(=O)N[C@@H](C)C(=O)N[C@@H](CCC(=O)O)C(=O)N[C@H](C(=O)N[C@@H](CC(C)C)C(=O)N[C@@H](C)C(=O)N[C@@H](CCC(=O)O)C(=O)N[C@H](C(N)=O)C(C)C)[C@@H](C)CC)[C@@H](C)O)[C@@H](C)CC)[C@@H](C)CC)C(C)C)C(C)C [compound 62] (H-IVLSLDVPIGLLQILLEQARAQAAREQAK([AEEA-AEEA-γGlu-γGlu-C20 diacid])TNAEILAEV-NH2) | – | – | 0.316 nM | 25100 nM | –
3 | CC[C@H](C)[C@H](N)C(=O)N[C@H](C(=O)N[C@@H](CC(C)C)C(=O)N[C@@H](CO)C(=O)N[C@@H](CC(C)C)C(=O)N[C@@H](CC(=O)O)C(=O)N[C@H](C(=O)N1CCC[C@H]1C(=O)N[C@H](C(=O)NCC(=O)N[C@@H](CC(C)C)C(=O)N[C@@H](CC(C)C)C(=O)N[C@@H](CCC(N)=O)C(=O)N[C@H](C(=O)N[C@@H](CC(C)C)C(=O)N[C@@H](CC(C)C)C(=O)N[C@@H](CCC(=O)O)C(=O)N[C@@H](CCC(N)=O)C(=O)N[C@@H](C)C(=O)N[C@@H](CCCNC(=N)N)C(=O)N[C@@H](C)C(=O)N[C@@H](CCCNC(=N)N)C(=O)N[C@@H](CO)C(=O)N[C@@H](C)C(=O)N[C@@H](CCCNC(=N)N)C(=O)N[C@@H](CCC(=O)O)C(=O)N[C@@H](CCC(N)=O)C(=O)N[C@@H](C)C(=O)N[C@@H](CCCCNC(=O)COCCOCCNC(=O)COCCOCCNC(=O)CC[C@H](NC(=O)CC[C@H](NC(=O)CCCCCCCCCCCCCCCCCCC(=O)O)C(=O)O)C(=O)O)C(=O)N[C@H](C(=O)N[C@@H](CC(N)=O)C(=O)N[C@@H](C)C(=O)N[C@@H](CCC(=O)O)C(=O)N[C@H](C(=O)N[C@@H](CC(C)C)C(=O)N[C@@H](C)C(=O)N[C@@H](CCC(=O)O)C(=O)N[C@H](C(N)=O)[C@@H](C)CC)[C@@H](C)CC)[C@@H](C)O)[C@@H](C)CC)[C@@H](C)CC)C(C)C)C(C)C [SEQ ID NO: 35] (H-IVLSLDVPIGLLQILLEQARARSAREQAK([AEEA-AEEA-γGlu-γGlu-C20 diacid])TNAEILAEI-NH2) | 0.501 nM | 79400 nM | – | – | –

More lines, main results first:

Row | EC50 (hCRHR2; [1]) | EC50 (hCRHR1; [2]) | EC50 (hCRHR2; [3]) | EC50 (hCRHR1; [4]) | Structure (SMILES) | also measured
4 | 1.26 nM | 126000 nM | – | – | CC[C@H](C)[C@H](N)C(=O)N[C@H](C(=O)N[C@@H](CC(C)C)C(=O)N[C@@H](CO)C(=O)N[C@@H](CC(C)C)C(=O)N[C@@H](CC(=O)O)C(=O)N[C@H](C(=O)N1CCC[C@H]1C(=O)N[C@H](C(=O)NCC(=O)N[C@@H](CC(C)C)C(=O)N[C@@H](CC(C)C)C(=O)N[C@@H](CCC(N)=O)C(=O)N[C@H](C(=O)N[C@@H](CC(C)C)C(=O)N[C@@H](CC(C)C)C(=O)N[C@@H](CCC(=O)O)C(=O)N[C@@H](CCC(N)=O)C(=O)N[C@@H](C)C(=O)N[C@@H](CCCNC(=N)N)C(=O)N[C@@H](C)C(=O)N[C@@H](CCCNC(=N)N)C(=O)N[C@@H](C)C(=O)N[C@@H](CCC(N)=O)C(=O)N[C@@H](CCCNC(=N)N)C(=O)N[C@@H](CCC(=O)O)C(=O)N[C@@H](CCC(=O)O)C(=O)N[C@@H](C)C(=O)N[C@@H](CCCCNC(=O)COCCOCCNC(=O)COCCOCCNC(=O)CC[C@H](NC(=O)CC[C@H](NC(=O)CCCCCCCCCCCCCCCCCCC(=O)O)C(=O)O)C(=O)O)C(=O)N[C@H](C(=O)N[C@@H](CC(N)=O)C(=O)N[C@@H](C)C(=O)N[C@@H](CCC(=O)O)C(=O)N[C@H](C(=O)N[C@@H](CC(C)C)C(=O)N[C@@H](C)C(=O)N[C@@H](CCC(=O)O)C(=O)N[C@H](C(N)=O)C(C)C)[C@@H](C)CC)[C@@H](C)O)[C@@H](C)CC)[C@@H](C)CC)C(C)C)C(C)C [SEQ ID NO: 33] (H-IVLSLDVPIGLLQILLEQARARAQREEAK([AEEA-AEEA-γGlu-γGlu-C20 diacid])TNAEILAEV-NH2) | –
5 | – | – | 0.501 nM | 3.16 nM | CCCC[C@H](NC(=O)[C@@H](NC(=O)[C@H](CCC(=O)O)NC(=O)[C@H](C)NC(=O)[C@H](CC(N)=O)NC(=O)[C@@H](NC(=O)[C@H](CCCCNC(=O)COCCOCCNC(=O)COCCOCCNC(=O)CC[C@H](NC(=O)CC[C@H](NC(=O)CCCCCCCCCCCCCCCCCCC(=O)O)C(=O)O)C(=O)O)NC(=O)[C@H](C)NC(=O)[C@H](CCC(N)=O)NC(=O)[C@H](CCC(=O)O)NC(=O)[C@H](CCCNC(=N)N)NC(=O)[C@H](C)NC(=O)[C@@H](NC(=O)[C@H](CCCNC(=N)N)NC(=O)[C@H](C)NC(=O)[C@H](CCCNC(=N)N)NC(=O)[C@H](C)NC(=O)[C@H](CCC(N)=O)NC(=O)[C@H](CCC(=O)O)NC(=O)[C@H](CC(C)C)NC(=O)[C@H](CC(C)C)NC(=O)[C@@H](NC(=O)[C@H](CCC(N)=O)NC(=O)[C@H](CC(C)C)NC(=O)[C@H](CC(C)C)NC(=O)CNC(=O)[C@@H](NC(=O)[C@@H]1C[C@H](N)CN1C(=O)[C@@H](NC(=O)[C@H](CC(=O)O)NC(=O)[C@H](CC(C)C)NC(=O)[C@H](CO)NC(=O)[C@H](CC(C)C)NC(=O)[C@@H](NC(=O)[C@@H](N)[C@@H](C)CC)C(C)C)C(C)C)[C@@H](C)CC)[C@@H](C)CC)C(C)C)[C@@H](C)O)[C@@H](C)CC)C(=O)N[C@@H](C)C(=O)N[C@@H](CCC(=O)O)C(=O)N[C@H](C(N)=O)C(C)C [compound 77] (H-IVLSLDV[Pro(4S-NH2)]IGLLQILLEQARARVAREQAK([AEEA-AEEA-γGlu-γGlu-C20 diacid])TNAEI[Nle]AEV-NH2) | –
